# Patent publication US20240009175A9, “TETRAZOLE DERIVATIVES” (Merck Patent GmbH, priority 2020, published 2024)
# Legend:
# CHO-K1 cells = assay: Micronucleus assay (MNT) in vitro; type: cell-based; design: key: A: negative, putative negative (micronuclei detected beyond threshold of 60% cyctotoxicity); B: positive; details: 24 hrs treatment, 0.2 μM to 100 μM
# Description: The in vitro MNT assay is performed in CHO-K1 cells due to their stable and well-characterized karyotype, high sensitivity and suitability for a high content imaging approach. They have a basal spontaneous micronucleus frequency of 3-4%.
# 24 hrs after plating CHO-K1 cells are treated with test compounds for 24 hrs (in duplicates; fixed concentration ranges from 0.2 μM to 100 μM in 2-fold dilution steps). After a medium change cells are incubated for 24 hrs with Cytochalasin B to block cytokinesis and are then fixed and nuclei/micronuclei visualized with a DNA stain. Images are acquired with the Molecular Devices high content imagers IXU or IXM and are analyzed with the dedicated MetaXpress software micronucleus module. Criteria for scoring of micronuclei (MN) are the following: • diameter of the MN should be less than ⅓ of the main nucleus • MN should be separated from or marginally overlap with main nucleus (=no blebs) • MN should have similar staining as the main nucleus
# At least 1000 binucleated cells are evaluated per treatment replicate. Mitomycin C is used as reference stimulator of micronucleus formation. Cytotoxicity is evaluated in parallel and defined by comparing total nuclei count in compound-treated samples to neutral control samples treated with vehicle only (1% DMSO) (100% cytotoxicity means all cells are dead or lost).
# A test compound is regarded as POSITIVE if generation of micronuclei and exhibition of less than 60% cytotoxicity at the same concentration can be observed.
# Compounds are scored only in the soluble concentration range.
# Experimental data of the compounds shown in Table 1 in the MNT assay are shown in Table 2 below and classified in the following groups: […]
# ACSS2 = ACSS2 (Homo sapiens (Human), UniProt Q9NR19); assay: Cellular assay of 14C acetate incorporation into histones (IC50 ACSS2 cellular histone); type: cell-based; details: HCT-15 cells
# Description: Cellular Assay of ^14C Acetate Incorporation into Histones (IC50 ACSS2 Cellular Histone)
# This protocol describes a cellular assay capable to quantify endogenous histone acetylation activity in the human HCT-15 cancer cell line following the incorporation of extracellularly administered radiolabeled ^14C acetate with a scintillation based read out on acid extracted histones.
# HCT-15 cells are trypsinized, washed and suspended in DMEM culture medium supplemented with penicillin/streptomycin (100 U/mL), sodium pyruvate (1 mM), and 10% FBS
# Compounds serial dilutions are prepared in 96-well V-bottom microplate from 10 mM stock solutions in DMSO. From these dilutions 0.5 μl are transferred to a fresh plate including pure DMSO as negative control. The dilutions are prepared such, that the final concentration in the assay is 1/400 of the concentration in the serial dilution. The final DMSO concentration in the assay is 0.25%.
# The cell suspension is seeded at densities of 2×10^5 cells per 170 μl into individual wells of a 96 well plate each containing 0.5 μl aliquots of compound serial dilutions and are kept for 1 h in a cell incubator. To each well 30 μL of a mixture containing 0.5 mCi/mL of ^14C-acetate with full medium are added. Then, the wells are incubated for 3 hrs in the cell incubator.
# Further steps of the procedure should be conducted on ice or instrumentations precooled to 4° C. Cells are sedimented in the 96-well V-bottom microplate by centrifugation (Eppendorf 5804 R) at 1200 rpm for 5 min. The supernatant is removed and the cells are washed twice with 200 μL of PBS-NaB (5 mM sodium butyrate) buffer by iterative resuspension and centrifugation. Finally, the cells are resuspended in 50 μL of TEB (PBS-NaB+0.5% Triton X-100) and left on ice for 10 minutes. After centrifugation at 2300 rpm for 10 minutes at 4° C. the supernatant is removed, the remaining pellet is suspended in 50 μL of 0.2M HCl and incubated over night at 4° C. After incubation the well plate is shaken for 2 minutes in a MTP plate shaker set to 1200 rpm and then centrifuged at 3700 rpm for 10 mins. The lysate is carefully aspirated (˜43 μL) and transferred into a white MTP plate (Greiner bio-one 65509). 90 μL of Ultima Gold XR scintillation cocktail are added and the plates are sealed with a transparent cover tape before mixing vigorously using plate shaker set to 1200 rpm. Radioactivity from ^14C incorporation in the wells is measured as CPM count in a MicroBeta Trilux luminescence counter.
# human rec ACSS2 = human rec ACSS2 (Homo sapiens (Human), UniProt Q9NR19); assay: Biochemical activity ACSS2 assay (AMP-Glo); details: human recombinant ACSS2, AMP-Glo, 180 min at 37° C.
# Description: Biochemical Activity ACSS2 Assay (IC50 ACSS2 Biochemical)
# The biochemical activity assay for ACSS2 is based on the detection of released AMP by AMP-Glo™ Assay kit (Promega, Madison). The assay is run in three steps: the enzymatic reaction in which human rec ACSS2 activates acetate with ATP and Coenzyme A as cosubstrates to acetyl-CoA thereby releasing AMP and the detection reaction of AMP by AMP Glo assay in which after the destruction of the residual ATP with AMP Glo reagent 1 produced AMP is converted to ATP that is measured in a luciferase assay system (detection reagent). The ACSS2 activity correlates with the detected luminescence signal.
# The assay was performed in Perkin Elmer 384 well white Proxiplates in a total volume of 8 μl.
# 1 nM (fc)C-term myc tagged ACSS2 (human, recombinant, Origene, Rockville, US) and a mixture of 100 μM (fc) ATP, 100 μM (fc) Coenzyme A and 500 μM (fc) sodium acetate were incubated in a total volume of 5 μl (50 mM Hepes, 1 mM Mg-chloride, 150 mM NaCl, 1 mM DTT, 0.01% (w/v) BSA, 0.3% DMSO, pH 7.5) in the absence or presence of the test compound (10 dilution concentrations, start conc 30 μM) for 180 min at 37° C. The reaction was stopped and residual ATP destroyed by the addition of 1 μl AMP Glo reagent solution (Promega, Madison, US). After 1h incubation at room temperature 2 μl of AMP Glo detection reagent was added and the assay was incubated for 0.75 hr at room temperature. The luminescence signal was measured with an Envision multimode reader (Perkin Elmer LAS Germany GmbH) at 700 nm in luminescence mode. The full value used was the inhibitor-free reaction. The pharmacological zero value was generated by addition of ACSS2 inhibitor (Ac-CoA Synthase Inhibitor—CAS 508186-14-9-Calbiochem) in a final concentration of 5 μM. The inhibitory values (IC50) were determined using the program Assay Analyzer® from GeneData.
# Chain of ACSS2 (Q9NR19 whole entry): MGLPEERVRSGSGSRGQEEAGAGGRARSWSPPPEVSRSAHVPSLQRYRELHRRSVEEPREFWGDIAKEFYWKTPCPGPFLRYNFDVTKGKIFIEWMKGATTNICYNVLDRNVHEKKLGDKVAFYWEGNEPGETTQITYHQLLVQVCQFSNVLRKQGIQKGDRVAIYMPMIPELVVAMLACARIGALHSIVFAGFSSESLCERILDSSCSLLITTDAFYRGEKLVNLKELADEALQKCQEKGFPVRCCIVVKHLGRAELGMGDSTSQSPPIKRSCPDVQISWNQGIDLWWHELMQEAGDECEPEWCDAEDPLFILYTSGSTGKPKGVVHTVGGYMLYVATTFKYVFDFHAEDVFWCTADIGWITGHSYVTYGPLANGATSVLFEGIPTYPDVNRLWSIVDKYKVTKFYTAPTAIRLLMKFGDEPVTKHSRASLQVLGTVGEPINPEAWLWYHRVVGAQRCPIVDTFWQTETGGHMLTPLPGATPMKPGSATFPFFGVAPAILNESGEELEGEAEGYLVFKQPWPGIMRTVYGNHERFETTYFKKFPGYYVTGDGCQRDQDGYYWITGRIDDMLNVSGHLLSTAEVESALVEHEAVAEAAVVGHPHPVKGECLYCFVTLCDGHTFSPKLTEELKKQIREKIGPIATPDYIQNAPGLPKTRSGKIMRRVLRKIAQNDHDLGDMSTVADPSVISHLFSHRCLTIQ
# Chain of human rec ACSS2 (Q9NR19 whole entry): as above
SMILES,MNT (CHO-K1 cells),IC50 (ACSS2) [nM],IC50 (human rec ACSS2) [nM]
"CCn1c(C(O)(c2ccccn2)c2cccs2)nc2nc(OC)c(-c3nnn[nH]3)cc21 (racemic) [Compound 26, [1-ethyl-5-methoxy-6-(1H-1,2,3,4-tetrazol-5-yl)-1H-imidazo[4,5-b]pyridin-2-yl](pyridin-2-yl)(thiophen-2-yl)methanol]",A,1 to 10,10 to 100
"CCn1c(C(O)(c2ccccc2F)c2ccccc2F)nc2ncc(-c3nnn[nH]3)cc21 [Compound 61, [1-ethyl-6-(1H-1,2,3,4-tetrazol-5-yl)-1H-imidazo[4,5-b]pyridin-2-yl]bis(2-fluorophenyl)methanol]",A,100 to 10000,10 to 100
"CCn1c(C(O)(c2ccccc2)c2ccsc2)nc2nc(OC)c(-c3nnn[nH]3)cc21 (racemic) [Compound 30, [1-ethyl-5-methoxy-6-(1H-1,2,3,4-tetrazol-5-yl)-1H-imidazo[4,5-b]pyridin-2-yl](phenyl)(thiophen-3-yl)methanol]",A,10 to 100,1 to 10
"CCn1c(C(O)(c2ccccc2)c2ccccc2C)nc2nc(OC)c(-c3nnn[nH]3)cc21 (racemic) [Compound 42, [1-ethyl-5-methoxy-6-(1H-1,2,3,4-tetrazol-5-yl)-1H-imidazo[4,5-b]pyridin-2-yl](2-methylphenyl)phenylmethanol]",A,1 to 10,1 to 10
"CCc1c(C(O)(c2ccccc2F)c2ccccc2F)nn2cc(Cl)c(-c3nnn[nH]3)cc12 [Compound 20, [6-Chloro-3-ethyl-5-(1H-tetrazol-5-yl)-pyrazolo[1,5-a]pyridin-2-yl]-bis-(2-fluoro-phenyl)-methanol]",A,10 to 100,1 to 10
"CCn1c(C(O)(c2ccccc2)c2nccs2)nc2nc(OC)c(-c3nnn[nH]3)cc21 (single isomer, unassigned) [Compound 33, [1-ethyl-5-methoxy-6-(1H-1,2,3,4-tetrazol-5-yl)-1H-imidazo[4,5-b]pyridin-2-yl](phenyl)(1,3-thiazol-2-yl)methanol]",A,10 to 100,10 to 100
"CCn1c(C(O)(c2ccsc2)c2ccsc2)nc2nc(OC)c(-c3nnn[nH]3)cc21 [Compound 29, [1-ethyl-5-methoxy-6-(1H-1,2,3,4-tetrazol-5-yl)-1H-imidazo[4,5-b]pyridin-2-yl]bis(thiophen-3-yl)methanol]",A,10 to 100,1 to 10
"CCn1c(C(O)(c2ccc(OC(F)F)cc2)c2ccccc2F)nc2nc(OC)c(-c3nnn[nH]3)cc21 (racemic) [Compound 52, [4-(difluoromethoxy)phenyl][1-ethyl-5-methoxy-6-(1H-1,2,3,4-tetrazol-5-yl)-1H-imidazo[4,5-b]pyridin-2-yl](2-fluorophenyl)methanol]",A,1 to 10,1 to 10
"CCc1c(C(O)(c2ccccc2)c2ccccn2)nc2cc(Cl)c(-c3nnn[nH]3)cn12 (single isomer, unassigned) [Compound 8, [7-chloro-3-ethyl-6-(1H-tetrazol-5-yl)imidazo[1,2-a]pyridin-2-yl]-phenyl-(2-pyridyl)methanol]",A,100 to 10000,1 to 10
"CCn1c(C(O)(c2ccccc2)c2cnn(C)c2)nc2nc(OC)c(-c3nnn[nH]3)cc21 (racemic) [Compound 36, [1-ethyl-5-methoxy-6-(1H-1,2,3,4-tetrazol-5-yl)-1H-imidazo[4,5-b]pyridin-2-yl](1-methyl-1H-pyrazol-4-yl)phenylmethanol]",A,100 to 10000,10 to 100
"CCn1c(C(O)(c2ccccc2)c2ccc(OC(F)F)cc2F)nc2nc(OC)c(-c3nnn[nH]3)cc21 (racemic) [Compound 47, [4-(difluoromethoxy)-2-fluorophenyl][1-ethyl-5-methoxy-6-(1H-1,2,3,4-tetrazol-5-yl)-1H-imidazo[4,5-b]pyridin-2-yl]phenylmethanol]",A,1 to 10,1 to 10
"Cc1nc2nc(C(O)(c3ccccc3F)c3ccccc3F)n(C)c2cc1-c1nnn[nH]1 [Compound 55, [1,5-dimethy-6-(1H-1,2,3,4-tetrazol-5-yl)-1H-imidazo[4,5-b]pyridin-2-yl]bis(2-fluorophenyl)methanol]",A,10 to 100,0.01 to 1
"CCc1c(C(O)(c2ccccc2)c2ccccn2)nc2cc(OC)c(-c3nnn[nH]3)cn12 (single isomer, unassigned) [Compound 10, [3-Ethyl-7-methoxy-6-(1H-tetrazol-5-yl)-imidazo[1,2-a]pyridin-2-yl]-phenyl-pyridin-2-yl-methanol]",A,100 to 10000,10 to 100
"CCn1c(C(O)(c2ccccc2F)c2ccccc2F)nc2nc(F)c(-c3nnn[nH]3)cc21 [Compound 46, [1-ethyl-5-fluoro-6-(1H-1,2,3,4-tetrazol-5-yl)-1H-imidazo[4,5-b]pyridin-2-yl]bis(2-fluorophenyl)methanol]",A,10 to 100,10 to 100
"CCc1c(C(O)(c2ccccc2)c2ccccc2)nn2cc(F)c(-c3nnn[nH]3)cc12 [Compound 23, [3-Ethyl-6-fluoro-5-(1H-tetrazol-5-yl)-pyrazolo[1,5-a]pyridin-2-yl]-diphenyl-methanol]",A,10 to 100,10 to 100
